According to ChEMBL document CHEMBL1128327, “L-O-(2-malonyl)tyrosine: a new phosphotyrosyl mimetic for the preparation of Src homology 2 domain inhibitory peptides” (J Med Chem, 1995):
Square brackets hold non-standard residues; d marks the D form. Peptide text beside a SMILES is read from it. * marks the point of attachment. pY = N[C@@H](Cc1ccc(OP(=O)(O)O)cc1)C(=O)O; X1 = O=C(O)C(C(=O)O)*

Columns and labels:
Assay type in all cases: functional
[1] = biological target: Proto-oncogene tyrosine-protein kinase Src (Homo sapiens, UniProt P12931); assay: Inhibitory activity against Src protein tyrosine kinase SH2 domain
Chain of Proto-oncogene tyrosine-protein kinase Src (P12931 2-536 limits assumed): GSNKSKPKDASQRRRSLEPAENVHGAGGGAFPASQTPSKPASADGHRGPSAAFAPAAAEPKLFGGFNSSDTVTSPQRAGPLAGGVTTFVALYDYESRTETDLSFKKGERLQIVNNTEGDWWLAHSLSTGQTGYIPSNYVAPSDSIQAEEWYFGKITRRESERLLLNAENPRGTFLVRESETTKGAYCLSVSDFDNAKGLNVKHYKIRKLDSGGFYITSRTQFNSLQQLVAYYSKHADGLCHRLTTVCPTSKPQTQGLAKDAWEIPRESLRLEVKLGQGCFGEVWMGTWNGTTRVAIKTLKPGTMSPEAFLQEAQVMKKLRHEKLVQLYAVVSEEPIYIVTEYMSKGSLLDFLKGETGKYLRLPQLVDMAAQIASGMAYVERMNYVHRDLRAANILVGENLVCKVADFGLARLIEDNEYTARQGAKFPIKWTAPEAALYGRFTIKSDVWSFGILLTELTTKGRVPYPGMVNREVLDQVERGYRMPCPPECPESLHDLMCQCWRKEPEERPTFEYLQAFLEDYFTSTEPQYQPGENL

[2] = Inhibitory activity against SH2 domain of PI3-kinase p85
[3] = biological target: T1, Tyrosine-protein phosphatase non-receptor type 11 (Homo sapiens, UniProt Q06124); assay: Inhibitory activity against SH2 domain of SH-PTP2 (N-terminal) binding
T1 sequence (Q06124 whole entry): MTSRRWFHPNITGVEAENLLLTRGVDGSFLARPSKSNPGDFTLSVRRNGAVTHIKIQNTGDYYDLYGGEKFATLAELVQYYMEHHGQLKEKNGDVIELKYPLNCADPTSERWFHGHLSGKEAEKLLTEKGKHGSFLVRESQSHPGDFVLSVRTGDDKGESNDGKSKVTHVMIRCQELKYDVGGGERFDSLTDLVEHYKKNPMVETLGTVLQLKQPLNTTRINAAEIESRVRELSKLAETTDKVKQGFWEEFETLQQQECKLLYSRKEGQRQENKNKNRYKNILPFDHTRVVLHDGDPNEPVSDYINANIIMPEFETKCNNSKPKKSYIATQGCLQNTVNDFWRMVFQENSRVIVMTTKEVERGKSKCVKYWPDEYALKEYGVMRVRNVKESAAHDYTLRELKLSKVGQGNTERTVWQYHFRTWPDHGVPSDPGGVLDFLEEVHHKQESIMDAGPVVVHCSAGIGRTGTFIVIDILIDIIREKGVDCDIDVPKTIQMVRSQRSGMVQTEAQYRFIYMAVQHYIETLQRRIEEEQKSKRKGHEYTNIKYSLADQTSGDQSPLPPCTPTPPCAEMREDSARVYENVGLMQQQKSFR

[4] = biological target: Growth factor receptor-bound protein 2 (Homo sapiens, UniProt P62993); assay: Inhibition of binding to Growth factor receptor bound protein 2 SH2 domain
Chain of Growth factor receptor-bound protein 2 (P62993 whole entry, the tested form may be a part): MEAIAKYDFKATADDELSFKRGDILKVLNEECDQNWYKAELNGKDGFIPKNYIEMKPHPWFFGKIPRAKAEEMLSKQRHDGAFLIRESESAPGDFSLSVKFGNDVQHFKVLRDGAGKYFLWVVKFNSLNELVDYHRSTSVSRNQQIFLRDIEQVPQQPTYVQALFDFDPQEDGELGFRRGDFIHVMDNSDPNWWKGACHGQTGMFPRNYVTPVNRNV

With `CC[C@H](C)[C@H](NC(=O)[C@H](CCC(=O)O)NC(=O)[C@H](CCC(=O)O)NC(=O)[C@H](Cc1ccc(OP(=O)(O)O)cc1)NC(=O)[C@H](CCC(N)=O)NC(C)=O)C(=O)N1CCC[C@H]1C(N)=O` the IC50 [1] was 3.2 µM.
`CC[C@H](C)[C@H](NC(=O)[C@H](CCC(=O)O)NC(=O)[C@H](CCC(=O)O)NC(=O)[C@H](Cc1ccc(OC(C(=O)O)C(=O)O)cc1)NC(=O)[C@H](CCC(N)=O)NC(C)=O)C(=O)N1CCC[C@H]1C(N)=O` gave an IC50 [1] of 25 µM.
For `CC[C@H](C)[C@H](NC(=O)[C@H](CCC(=O)O)NC(=O)[C@H](Cc1ccc(OC(C(=O)O)C(=O)O)cc1)NC(=O)[C@H](Cc1ccc(OC(C(=O)O)C(=O)O)cc1)NC(=O)[C@H](CCC(N)=O)NC(C)=O)C(=O)N1CCC[C@H]1C(N)=O`, the IC50 [1] was 22.8 µM.
`CSCC[C@H](NC(=O)[C@@H]1CCCN1C(=O)[C@@H](NC(=O)[C@H](Cc1ccc(OC(C(=O)O)C(=O)O)cc1)NC(=O)[C@H](CC(=O)O)NC(C)=O)C(C)C)C(=O)N[C@@H](CC(C)C)C(N)=O` (Ac-DY(X1)VPML-NH2) showed an IC50 [2] of 14.2 µM.
For `CSCC[C@H](NC(=O)[C@@H]1CCCN1C(=O)[C@@H](NC(=O)[C@H](Cc1ccc(OP(=O)(O)O)cc1)NC(=O)[C@H](CC(=O)O)NC(C)=O)C(C)C)C(=O)N[C@@H](CC(C)C)C(N)=O` (Ac-D[pY]VPML-NH2), the IC50 [2] was 0.15 µM.
For `CC[C@H](C)[C@H](NC(=O)[C@H](Cc1ccc(OC(C(=O)O)C(=O)O)cc1)NC(=O)[C@H](CC(N)=O)NC(=O)[C@H](CC(C)C)NC(C)=O)C(=O)N[C@@H](CC(=O)O)C(=O)N[C@@H](CC(C)C)C(=O)N[C@@H](CC(=O)O)C(=O)N[C@@H](CC(C)C)C(=O)N[C@H](C(N)=O)C(C)C` (Ac-LNY(X1)IDLDLV-NH2), the IC50 [3] was 22 µM.
In the case of `CC[C@H](C)[C@H](NC(=O)[C@H](Cc1ccc(OP(=O)(O)O)cc1)NC(=O)[C@H](CC(N)=O)NC(=O)[C@H](CC(C)C)NC(C)=O)C(=O)N[C@@H](CC(=O)O)C(=O)N[C@@H](CC(C)C)C(=O)N[C@@H](CC(=O)O)C(=O)N[C@@H](CC(C)C)C(=O)N[C@H](C(N)=O)C(C)C` (Ac-LN[pY]IDLDLV-NH2), the IC50 [3] is reported as 1.54 µM.
With `CC[C@H](C)[C@H](NC(=O)[C@H](CC(N)=O)NC(=O)[C@@H](NC(=O)[C@H](Cc1ccc(OC(C(=O)O)C(=O)O)cc1)NC(=O)[C@H](CC(N)=O)NC(C)=O)C(C)C)C(=O)N[C@@H](CCC(=O)O)C(N)=O` (Ac-NY(X1)VNIE-NH2) the IC50 [4] was 120 µM.
Work on `CC[C@H](C)[C@H](NC(=O)[C@H](CC(N)=O)NC(=O)[C@@H](NC(=O)[C@H](Cc1ccc(OP(=O)(O)O)cc1)NC(=O)[C@H](CC(N)=O)NC(C)=O)C(C)C)C(=O)N[C@@H](CCC(=O)O)C(N)=O` (Ac-N[pY]VNIE-NH2) yielded an IC50 [4] of 0.9 µM.
